Measurements: ChEMBL document CHEMBL5154840, “Development of novel dipeptide nitriles as inhibitors of rhodesain of Trypanosoma brucei rhodesiense” (Eur J Med Chem, 2022)
Activity calls are given as the source filed them. The calls are words filed in the database; no cut-off is given here.

Key:
[1] = molecular target: Rhodesain (Trypanosoma brucei rhodesiense, UniProt Q95PM0); experiment: Inhibition of full length Trypanosoma brucei rhodesiense rhodesain expressed in pichia pastoris using Cbz-Phe-Arg-AMC as substrate measured for 10 mins by fluorometric enzyme assays
[2] = test system: Trypanosoma brucei brucei; experiment: Antitrypanosomal activity against Trypanosoma brucei brucei measured after 24 hrs by ATPlite assay; format: functional, organism-based
[3] = test system: Trypanosoma brucei brucei; experiment: Antitrypanosomal activity against Trypanosoma brucei brucei measured after 48 hrs by ATPlite assay; format: functional, organism-based
[4] = molecular target: Rhodesain (Trypanosoma brucei rhodesiense) (UniProt Q95PM0); experiment: Competitive inhibition of Trypanosoma brucei rhodesiense rhodesain expressed in pichia pastoris using varying concentration of Cbz-Phe-Arg-AMC as substrate by fluorometric enzyme assays
Chain of Rhodesain (Trypanosoma brucei rhodesiense) (Q95PM0 1-450): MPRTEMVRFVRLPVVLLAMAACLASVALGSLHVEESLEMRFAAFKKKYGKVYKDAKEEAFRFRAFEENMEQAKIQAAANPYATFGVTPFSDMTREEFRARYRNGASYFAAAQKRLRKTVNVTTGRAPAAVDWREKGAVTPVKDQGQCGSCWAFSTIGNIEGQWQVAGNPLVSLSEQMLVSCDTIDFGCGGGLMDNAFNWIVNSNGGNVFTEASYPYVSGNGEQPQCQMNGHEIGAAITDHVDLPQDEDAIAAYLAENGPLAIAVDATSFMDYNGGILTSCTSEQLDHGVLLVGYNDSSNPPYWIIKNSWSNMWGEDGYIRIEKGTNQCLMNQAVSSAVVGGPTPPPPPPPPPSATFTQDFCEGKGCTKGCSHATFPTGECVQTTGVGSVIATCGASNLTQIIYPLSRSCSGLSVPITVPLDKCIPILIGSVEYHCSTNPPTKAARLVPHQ

Chain of Rhodesain (Q95PM0 whole entry): as the sequence (Q95PM0 1-450) above

SMILES | Ki [1] | EC50 [2] | EC50 [3] | inhibition [4]
N#C[C@H](CCc1ccccc1)NC(=O)[C@H](Cc1ccccc1)NC(=O)c1ccccc1F | 0.112 µM | 10.3 µM | 11.6 µM | –
N#C[C@H](CCc1ccccc1)NC(=O)[C@H](Cc1ccccc1)NC(=O)c1ccc(F)cc1F | – | 18.7 µM | 23.4 µM | –
N#C[C@H](CCc1ccccc1)NC(=O)[C@H](Cc1ccccc1)NC(=O)c1ccc(F)cc1 | 0.07 µM | 10.6 µM | 14.5 µM | –
CC(C)C[C@H](NC(=O)c1ccc(F)cc1F)C(=O)N[C@H](C#N)CCc1ccccc1 | 0.066 µM | 19.3 µM | 22.5 µM | –
CC(C)C[C@H](NC(=O)c1c(F)cccc1F)C(=O)N[C@H](C#N)CCc1ccccc1 | 0.052 µM | 18.6 µM | 27.1 µM | –
CC(C)C[C@H](NC(=O)c1cccc(F)c1)C(=O)N[C@H](C#N)CCc1ccccc1 | 0.016 µM | 10.1 µM | 14.1 µM | Active
CC(C)C[C@H](NC(=O)c1ccc(F)cc1)C(=O)N[C@H](C#N)CCc1ccccc1 | 0.052 µM | 13.3 µM | 18.7 µM | –
N#C[C@H](CCc1ccccc1)NC(=O)[C@H](Cc1ccccc1)NC(=O)c1c(F)cccc1F | 0.122 µM | 5.3 µM | 8.8 µM | –
CC(C)C[C@H](NC(=O)c1ccccc1F)C(=O)N[C@H](C#N)CCc1ccccc1 | 0.032 µM | 21.1 µM | 32 µM | –
N#C[C@H](CCc1ccccc1)NC(=O)[C@H](Cc1ccccc1)NC(=O)c1cccc(F)c1 | 0.072 µM | 9.1 µM | 9.4 µM | –
